Experimental data reported in patent publication US7030087B2, “Synthetic approach to designed chemical structures” (priority 1996, dated 2006).
Marks after values point to notes of the source that are not given here. No end group written: not given here.

What was measured:
P. aeruginosa = experiment: Bactericidal activity assay; format: cell-based, Pseudomonas aeruginosa type 1; conditions: for Bactericidal Activity, % killing: 1.2 × 10^−7 M Peptide, 5 × 105 P. aeruginosa; for Bactericidal Activity, % killing at the effective dose: at the Ed for the same peptide; for Bactericidal Activity, Ed, Effective M dose: dose at which the % in brackets was found
Excerpt: Bacteria: P. aeruginosa type 1 is a clinical isolate maintained in the laboratory. The isolate remains a smooth strain and was serotyped by the scheme of Homma. The Pseudomonas strain was maintained by monthly transfer on blood agar plates.
The peptides can be assayed for bactericidal activity against a variety of organisms such as Pseudomonas aeruginosa type 1, P. cepacia ATCC 25608, E. coli B, and Staphylococcus aureus 502A by standard methods.
Pseudomonas aeruginosa type 1 is a clinical isolate. The isolate remains a smooth strain and was serotyped by the scheme of Homma (Jpn. J. Exp. Med. 46:329, 1976). A rough strain, E. coli B and S. aureus 502A were obtained from Paul Quie, University of Minnesota (Minneapolis, Minn.). The characteristics of the S. aureus strain have been described by Shinefield et al. (Amer. J. Dis. Chil. 105:646, 1963). Pseudomonas cepacia ATCC 25608 can be purchased from the ATCC. S. aureus and E. coli were maintained on nutrient agar plates and the Pseudomonas strains were maintained on blood agar plates.
Pyrogen-free solutions were used throughout the assay and all methods that follow. Log phase bacteria were prepared from a culture in brain heart infusion broth (Hovde et al. Infect. Immun. 54:142–148, 1986) and bacteria were washed and resuspended in saline with adjustment to an optical density at 650 nm to provide a yield of about 3×10^8 CFU/ml. Bacteria were diluted 1:10 in 0.08M citrate phosphate buffer, pH 5.6 or pH 7.0, for use in the assay. S. aureus rapidly lost viability in the pH 5.6 buffer and was studied only at pH 7.0. Bactericidal activity was determined by dose response over peptide concentrations ranging from about […] to about 4.1×10^−9M. Bactericidal activity was determined by dose response, preferably determining LD50 by linear regression.

[1] = test system: endotoxin from E. coli 055:B5; experiment: Limulus amoebocyte lysate assay (E-TOXATE), endotoxin neutralization; format: biochemical; conditions: for Endotoxin Neutralization, % neutralization: 5.0 × 10^−6 M Peptide; for Endotoxin Neutralization, % neutralization / Endotoxin Neutralization, % at the effective dose / Endotoxin Neutralization, Ed, Effective M dose: Table 4; for Endotoxin Neutralization, % at the effective dose: at the Ed
Experimental: The peptides were tested for their ability to neutralize endotoxin. Quantitative endotoxin activities for these peptides were measured by Limulus amoebocyte lysate assay.
Limulus amoebocyte lysate assay: The ability of synthetic peptides to neutralize endotoxin was detected with the E-TOXATE kit manufactured by Sigma Chemicals (St. Louis, Mo.). […] Peptide or B/PI was incubated with LPS at room temperature for 5 min in 100 ul of a 1:2 dilution of pyrogen-free saline (pH 6.4). The reaction was started by addition of 100 ul of amoebocyte lysate and the final volume was 200 ul. Assuming a 10,000 molecular weight for LPS, the approximate molar ration of B/PI:LPS at neutralization was 3000 to 1.
The peptides were tested according to the method provided above. […] BG38L was used as a positive control in these experiments.

[2] = test system: endothelial cells (FBHEC, HUVEC); experiment: Endothelial cell proliferation assay of βpeptides 1–24 (FIG. 7); format: cell-based
Experimental: FIG. […] FIG. 7A provides ^3H-Thymidine incorporation data for FBHEC cells and FIG. 7B provides ^3H-Thymidine incorporation data for HUVEC cells.
βpeptides 1–24 were tested in an endothelial cell proliferation assay using ^3H-thymidine incorporation. […]

E. coli 055:B5 endotoxin = experiment: Chromogenic Limulus amoebocyte lysate test, neutralization of endotoxin in vitro; format: biochemical; conditions: 0.01 ng of LPS mixed with 5×10^−6M peptide
Experimental: (§1) LPS derived from P. aeruginosa and E. coli 0111:B4 or 055:B5 was purchased from List Biological Laboratories (Campbell, Calif.) and stored at 4° C. until use. A commercially available chromogenic Limulus amoebocyte lysate test (Whittaker, Walkersville, Md.) was used to measure endotoxin levels in all solutions and serum samples. Endotoxin levels in peptide solutions were determined to be less than about 0.1 ng/ml. The capacity of BG22, βpep-3 and BG16 to neutralize E. coli 055:B5 endotoxin in vitro was determined by mixing 0.01 ng of LPS with 5×10^−6M of each peptide and results were compared to that observed for 0.01 ng of LPS alone.

[3] = test system: Pseudomonas aeruginosa LPS; experiment: Endotoxemia in vivo, serum endotoxin levels; parameters: unit not given here; conditions: iv 125 μg peptide preincubated with 2 μg LPS per mouse
Experimental: as §1
(§2) To study endotoxemia in a mammal, 500 μg of each peptide was added to 8 μg of Pseudomonas aeruginosa LPS in 2.0 ml of pyrogen-free phosphate buffered saline (PBS) ex vivo, and incubated for 30 minutes on a shaker at room temperature. Each mouse was injected via tail vein with 0.5 ml of the mixture (125 μg of BG22, BG16, or βpep-3 and 2 μg of LPS per mouse). Mice were euthanized at 30, 60, 90 and 120 minutes after injection and serum collected just prior to death was analyzed for endotoxin levels and TNF-α concentration.
All TNF-α and endotoxin measurements in duplicate or triplicate in each experiment. In vivo experiments were performed twice to confirm reproducibility. The results obtained were compared using the unpaired Student's t-test.

TNF-α = experiment: Endotoxemia in vivo, serum TNF-α levels; parameters: species or system mouse; conditions: 90 minutes post-challenge; compared to mice receiving LPS without peptide, p<0.05
Experimental: TNF-α concentrations were measured as described by Battafarano et al. (supra). Briefly, the TNF-α sensitive cell line WEHI was used in all assays of either RAW cell supernatant (in vitro) or serum (in vivo animal model). Concentrations were extrapolated from a standard curve based oil dilutions of purified TNF-α (Genzyme, Cambridge, Mass.), and all samples were examined in triplicate. Viability of the WEHI cells was assessed by measuring the extent of cellular crystal violet uptake by spectrophotometry at 590 nm. In this assay, absorbance was inversely correlated with cell death and lysis resulting from exposure of WEHI cells to TNF-α. The amount of TNF-α in each experimental sample was extrapolated from the standard curve.
as §2
All TNF-α and endotoxin measurements in duplicate or triplicate in each experiment. […]

[4] = target: the molecule itself; experiment: PFG NMR self-diffusion at 30 C, calibrated with lysozyme, ubiquitin and ribonuclease; self-association
Experimental: Reson* 93:395–402, 1991) were performed on βpep peptides to assess self-association properties. Pulsed field gradient (PFG) NMR self-diffusion measurements were made on a Bruker AMX-600 using a GRASP gradient unit. NMR spectra for measurement of diffusion coefficients, D, were acquired using a 5 mm triple-resonance probe equipped with an actively shielded z-gradient coil. […] The PFG longitudinal eddy-current delay pulse-sequence was used for all self-diffusion measurements which were performed in D_2O over the temperature range 275° K to 310° K Peptide concentrations ranged from 3 mg/mL to 10 mg/mL.
(§3) The Stokes-Einstein relationship $D = k_B T / 6\pi \eta R$ was used to relate D to the macro-molecular radius, R, which was considered to be proportional to the square root of the apparent molecular weight, Mapp^{1/2} (Cantor et al. 1980. *The behavior of biological macromolecules*. Biophysical Chemistry, part III. New York: W. H. Freeman. pp. 979–1039). Therefore, D is proportional to Mapp^{-1/2}. From these simple relationships, the ratio $Ddimer/Dmonomer$ was 0.71, which is very close to 0.72 theoretically predicted for a two sphere dimer (Wills, et al. *J. Phys. Chem.* 85: 3978–3984, 1981). Use of the Stokes-Einstein relationship is specifically derived for a hard sphere, and although the actual molecular shape of each peptide aggregate would affect the diffusion coefficient, the maximum change in the ratio $Daggregate/Dmonomer$ would be about 20% in case of an improbable linear peptide tetramer. $Mapp$ for peptides was calculated using D values of lysozyme, ribonuclease and ubiquitin as standards for monomers of known molecular weight.
The temperature dependence of diffusion coefficients is plotted in FIG. 4. […] Moreover, for βpep-5, βpep-8 and βpep-1, the temperature dependence was linear and followed the activation energy expected for the self-diffusion of water.

[5] = target: the molecule itself; experiment: PFG NMR self-diffusion; self-association
Experimental: (§4) Pulsed-Field Gradient (PFG) NMR Self-Diffusion Measurements of β-Peptide Series Peptides Pulsed-field gradient (PFG) NMR diffusion measurements (Gibbs, et al. *J. Magn. Reson* 93:395–402, 1991) were performed on βpep peptides to assess self-association properties. Pulsed field gradient (PFG) NMR self-diffusion measurements were made on a Bruker AMX-600 using a GRASP gradient unit. NMR spectra for measurement of diffusion coefficients, D, were acquired using a 5 mm triple-resonance probe equipped with an actively shielded z-gradient coil. […]
as §3, with “Therefore, D is proportional to Mapp^{-1/2}. From these simple relationships, the ratio $Ddimer/Dmonomer$ was 0.71, which is very close to 0.72 theoretically predicted for a two sphere dimer (Wills, et al. *J. Phys. Chem.* 85: 3978–3984, 1981).” left out

[6] = target: the molecule itself; experiment: NMR solution structure; self-association
[7] = target: the molecule itself; experiment: PFG NMR self-diffusion, 10 C to 40 C; self-association
Experimental: as §4
as §3, with “Therefore, D is proportional to Mapp^{-1/2}. From these simple relationships, the ratio $Ddimer/Dmonomer$ was 0.71, which is very close to 0.72 theoretically predicted for a two sphere dimer (Wills, et al. *J. Phys. Chem.* 85: 3978–3984, 1981).” left out

[8] = target: the molecule itself; experiment: PFG NMR self-diffusion at 2 C; self-association
Experimental: as §4
as §3, with “Therefore, D is proportional to Mapp^{-1/2}. From these simple relationships, the ratio $Ddimer/Dmonomer$ was 0.71, which is very close to 0.72 theoretically predicted for a two sphere dimer (Wills, et al. *J. Phys. Chem.* 85: 3978–3984, 1981).” left out

[9] = 0.02 U (0.2 pg) endotoxin from E. coli 055:B5
[10] = dose at which the % in brackets was found
[11] = 30 minutes after LPS/Peptide injection
[12] = 60 minutes after LPS/Peptide injection
[13] = 90 minutes after LPS/Peptide injection
[14] = 120 minutes after LPS/Peptide injection

## ANIKLSVEMKLFKRHLKWKIIVKLNDGRELSLD [βpep-8]
P. aeruginosa
  Bactericidal Activity, % killing: 0%
  Bactericidal Activity, % killing at the effective dose: (28.1), n = 3%
  Bactericidal Activity, Ed, Effective M dose: 960 nM
[1]
  endotoxin neutralizing activity (in words): best endotoxin neutralizing activity
  Endotoxin Neutralization, % at the effective dose: 77.9%
[1]; 5.0 × 10^−5 M peptide, 0.02 U (0.2 pg) endotoxin from E. coli 055:B5, Table 3
  Endotoxin Neutralizing Activity, % neutralization: 100%
[1]; [9]
  Endotoxin Neutralization, % neutralization: 100%
[1]; Table 3, dose at which the % in brackets was found
  Endotoxin neutralization, ED, Effective M dose: 1.2 µM
[1]; [10]
  Endotoxin Neutralization, Ed, Effective M dose: 1.2 µM
[2]
  control of endothelial cell proliferation (in words): little cell proliferation activity

## MNSQVCEKVTNSVSSKLQPYFQTLPVMTKI [BG16]
E. coli 055:B5 endotoxin
  % Neutralization of Endotoxin: 0%
[3]; [11]
  endotoxemia in vivo, serum endotoxin levels: >10,000
[3]; [12]
  endotoxemia in vivo, serum endotoxin levels: 2,394
[3]; [13]
  endotoxemia in vivo, serum endotoxin levels: 5,599
[3]; [14]
  endotoxemia in vivo, serum endotoxin levels: >10,000

## NANIKISGKWKAQKRFLKMSGNFDLSI [BG22, a 27mer, BPI aa 82–108]
E. coli 055:B5 endotoxin
  % Neutralization of Endotoxin: 37%
[3]; [11]
  endotoxemia in vivo, serum endotoxin levels: 7*
[3]; [12]
  endotoxemia in vivo, serum endotoxin levels: 28*
[3]; [13]
  endotoxemia in vivo, serum endotoxin levels: 73*
[3]; [14]
  endotoxemia in vivo, serum endotoxin levels: 47*
TNF-α
  serum TNF-α levels (in words): decreased serum TNF-α levels

## SIQDLKVSLNLFRKQAKWKIIVKLNDGRELSLD [βpep-23]
P. aeruginosa
  Bactericidal Activity, % killing: 0%
  Bactericidal Activity, % killing at the effective dose: 45.8%
  Bactericidal Activity, Ed, Effective M dose: 480 nM
[1]
  endotoxin neutralizing activity (in words): best endotoxin neutralizing activity
  Endotoxin Neutralization, % at the effective dose: 65.7%
[1]; [9]
  Endotoxin Neutralization, % neutralization: 100%
[1]; [10]
  Endotoxin Neutralization, Ed, Effective M dose: 1.2 µM
[2]; 0.26 micromolar
  effectiveness at decreasing endothelial cell growth: about 30%

## KFIVTLRVIKAGPHSPTAQIIVELKNGRKLSLD-NH2 (not fully specified, It is entered as the monomer chain) [βpep-5]
[4]
  average molecular weight (apparent, self-associated state): 12800 Da
[5]
  ratio of average molecular weight to calculated monomer molecular weight: 3.6

B1: βpep-4 (peptide)
peptide: SIQDLNVSMKLFRKQAKWKINVKLNDGRELSLD-NH2
modifications: also: β-sheet sandwich tetramer
notes: Synthetic 33-mer designed de novo; It is entered as the monomer chain
[6]
  binding result: binds

B2: βpep-8 (peptide)
peptide: ANIKLSVEMKLFKRHLKWKIIVKLNDGRELSLD-NH2
modifications: not fully specified
notes: as for B1
[4]
  average molecular weight (apparent, self-associated state): 9490 Da
[7]
  ratio of apparent molecular weight to calculated monomer molecular weight: 2.4
[8]
  ratio of apparent molecular weight to calculated monomer molecular weight: 3.7

B3: βpep-1 (peptide)
peptide: SIQDLNVSMKLFRKQAKWKIIVKLNDGRELSLD-NH2
modifications: not fully specified
notes: as for B1
[4]
  average molecular weight (apparent, self-associated state): 13700 Da
[5]
  ratio of average molecular weight to calculated monomer molecular weight: 3.6
